Laboratory results: patent US6569834B1, “Elucidation and synthesis of antineoplastic tetrapeptide w-aminoalkyl-amides” (priority 1992, dated 2003)
Values after ≈ are worked out from the molar mass of the structure shown.

Experiments:
Assay type in all cases: cell-based
SK-MEL-3 = assay: Human cancer cell growth inhibition, melanoma SK-MEL-3
From the text: (§1) Only two hundred years ago, many diseases ravaged humankind. Many of these diseases have been controlled or eradicated. In the development of the means to treat or control these diseases, work with the appropriate common experimental animals was of critical importance. With the various types of cancers, and with the HIV virus, such work is presently ongoing. The research for the treatment of various types of cancer is coordinated by the National Cancer Institute (NCI). NCI, as a government entity, has been charged with assisting anti-cancer research. To establish whether a substance has anti cancer activity, NCI has established a protocol. This protocol, which involves testing a substance against a cell line panel containing 60 human tumor cell lines, has been verified, and is accepted in scientific circles. This protocol, and the established statistical means of evaluating the results obtained therefrom have been amply described in the literature. See e.g. Principles & Practice of Oncology PPO Updates, Volume 3, Number 10, October 1989, by Michael R. Boyd, M. D., Ph.D., for a description of the protocol. The statistical analysis is explained in “Display and Analysis of Patterns of Differential Activity of Drugs Against Human Tumor Cell Lines: Development of Mean Graph and COMPARE Algorithm” Journal of the National Cancer Institute Reports Vol. 81, No. 14, Pg. 1088, July 14, 1989, by K. D. Paull et al. Both articles are incorporated herein by this reference as if fully set forth.
(§2) The extraordinary inhibition of cell growth shown by the tetrapeptide w-aminoalkylamides 6a-d against six major types of human cancer and against the murine P388 lymphocytic leukemia cell line has been presented in Table I.

P-388 = assay: Cancer cell growth inhibition, murine P388 lymphocytic leukemia cell line; parameters: unit not given here; conditions: Mouse leukemia cell P-388
From the text: as §2

NCI-460 = assay: Human cancer cell growth inhibition, Lung-NSC NCI-460
From the text: as §1, §2

OVCAR-3 = assay: Human cancer cell growth inhibition, ovarian OVCAR-3
From the text: as §1, §2

KM20L2 = assay: Human cancer cell growth inhibition, colon KM20L2
From the text: as §1, §2

A498 = assay: Human cancer cell growth inhibition, renal A498
From the text: as §1, §2

SF-295 = assay: Human cancer cell growth inhibition, CNS SF-295
From the text: as §1, §2

human cancer cell line = assay: Human cancer cell line activity compared to dolastatin 10

| Compound | GI-50 (SK-MEL-3) [µg/mL] | TGI (SK-MEL-3) [ng/mL] | Cancer cell growth inhibitory activity (P-388) | GI-50 (NCI-460) [µg/mL] | TGI (NCI-460) [ng/mL] | GI-50 (OVCAR-3) [µg/mL] | TGI (OVCAR-3) [ng/mL] | GI-50 (KM20L2) [µg/mL] | TGI (KM20L2) [ng/mL] | GI-50 (A498) [µg/mL] | TGI (A498) [ng/mL] | GI-50 (SF-295) [µg/mL] | TGI (SF-295) [ng/mL] | human cancer cell line activity as compared to dolastatin 10 (human cancer cell line) |
| --- | --- | --- | --- | --- | --- | --- | --- | --- | --- | --- | --- | --- | --- | --- |
| CC[C@H](C)[C@@H]([C@@H](CC(=O)N1CCC[C@H]1[C@H](OC)[C@@H](C)C(=O)NCCc1ccccn1)OC)N(C)C(=O)[C@@H](NC(=O)[C@H](C(C)C)N(C)C)C(C)C [Peptide 6a, [2S-[1[1R*(R*),2S*],2R*[1S*,2S*]]]-N,N-dimethyl-L-valyl-N-[2-methoxy-4-[2-[1-methoxy-2-methyl-3-oxo-3-[[2-(2-pyridyl)ethyl]amino]propyl]-1-pyrrolidinyl-1-(methylpropyl)-4-oxobutyl]-N-methyl-L-valineamide] | 0.000065 | 0.77 (≈ 0.0011 µM) | 0.000713 | 0.00024 | 0.8 (≈ 0.00114 µM) | 0.000039 | 0.21 (≈ 0.000299 µM) | 0.000062 | 1.1 (≈ 0.00156 µM) | 0.00043 | <10 | 0.00035 | <10 | – |
| CC[C@H](C)[C@@H]([C@@H](CC(=O)N1CCC[C@H]1[C@H](OC)[C@@H](C)C(=O)NCCN1CCOCC1)OC)N(C)C(=O)[C@@H](NC(=O)[C@H](C(C)C)N(C)C)C(C)C [Peptide 6b, [2S-[1[1R*(R*),2S*],2R*[1S*,2S*]]]-N,N-dimethyl-L-valyl-N-[2-methoxy-4-[2-[1-methoxy-2-methyl-3-oxo-3-[[2-(4-morpholino)ethyl]amino]propyl]-1-pyrrolidinyl-1-(methylpropyl)-4-oxobutyl]-N-methyl-L-valineamide] | <0.0001 | <0.1 | 0.0736 | <0.0001 | <0.1 | <0.0001 | <0.1 | <0.0001 | <0.1 | <0.0001 | <0.1 | <0.0001 | <0.1 | – |
| CC[C@H](C)[C@@H]([C@@H](CC(=O)N1CCC[C@H]1[C@H](OC)[C@@H](C)C(=O)NCCN(C)C)OC)N(C)C(=O)[C@@H](NC(=O)[C@H](C(C)C)N(C)C)C(C)C [Peptide 6c, [2S-[1[1R*(R*),2S*],2R*[1S*,2S*]]]-N,N-dimethyl-L-valyl-N-[2-methoxy-4-[2-[1-methoxy-2-methyl-3-oxo-3-[[2-dimethylamino-ethyl]amino]propyl]-1-pyrrolidinyl-1-(methylpropyl)-4-oxobutyl]-N-methyl-L-valineamide] | <0.01 | <10 | <0.1 | 0.0051 | <10 | 0.0028 | 8.6 (≈ 0.0129 µM) | <0.01 | <10 | 0.0025 | 5.6 (≈ 0.00837 µM) | 0.0033 | <10 | – |
| CC[C@H](C)[C@@H]([C@@H](CC(=O)N1CCC[C@H]1[C@H](OC)[C@@H](C)C(=O)NCCCN(C)C)OC)N(C)C(=O)[C@@H](NC(=O)[C@H](C(C)C)N(C)C)C(C)C [Peptide 6d, [2S-[1[1R*(R*),2S*],2R*[1S*,2S*]]]-N,N-dimethyl-L-valyl-N-[2-methoxy-4-[2-[1-methoxy-2-methyl-3-oxo-3-[[3-dimethylamino-propyl]amino]propyl]-1-pyrrolidinyl-1-(methylpropyl)-4-oxobutyl]-N-methyl-L-valineamide] | <0.01 | <10 | 0.881 | 0.0072 | <10 | <0.01 | <10 | <0.01 | <10 | <0.01 | <10 | <0.01 | <10 | – |
| R-Doe-isodolastatin 10 | – | – | – | – | – | – | – | – | – | – | – | – | – | did not show any significant difference |
